Data taken from US8420621B2, “Methods of using gamma cyclodextrin to control blood glucose and insulin secretion” (Abbott Laboratories, priority 2004, dated 2013).

Tests used:
Format in all cases: in vivo, human
healthy adult subjects [1] = test: Clinical study: postprandial serum insulin response (ELISA)
Source text: Thirty-two healthy adult subjects received two treatments in a double-masked, randomized, crossover design. The two treatments consisted of 50 g challenges of either maltodextrin or gamma-cyclodextrin. Blood samples were collected over a three-hour period, and breath samples collected over an eight-hour period following consumption of each carbohydrate. […] This study utilized a randomized, double-masked, crossover design, with a 4-14 day washout period between treatments. Before completing the two treatment visits, each subject completed one pre-study gastrointestinal tolerance test visit. Randomization was carried out by sealed envelopes stating which pre-study treatment was to be received, as well as in which sequence the two treatment visits were to be carried out. These envelopes were prepared from randomization schedules generated at Ross Products Division of Abbott Laboratories, Two product coordinators assigned an envelope from the top of the pile to each subject in the order that they passed all screening criteria and were given subject numbers. Besides carrying out randomization, the product coordinators were responsible for study product inventory and serving the appropriate product to subjects at each visit so that other study staff could not become aware of the study product identity. […] At each of the two treatment visits, subjects received 16 fl oz of a study product containing either 50 g of maltodextrin or 50 g of gamma-cyclodextrin. All beverages were served cold in styrofoam cups with lids and straws, labeled only with the subject number, subject initials and visit number, with the intention of hiding any slight differences in appearance that could be visible to study staff or subjects. […] A breath sample was collected for measurement of breath hydrogen. […] After consumption of the study beverage, the subject resumed fasting. Time 0 was designated as the time at which the subject began drinking the study beverage. […] Subjects were limited to the consumption of 8 fl oz of water during this three hour blood collection period. Approximately 10 mL of normal saline was injected into the vein after each blood draw in order to keep the line open and to replace the fluid lost from the blood collected. Insulin was analyzed using DSL-10-1600 Insulin ELISA Kits (Diagnostic Systems Laboratories, mc, Webster, Tex.). […] An acidic stopping solution is then added and the enzymatic turnover of TMB is determined by dual wavelength absorbance measurement at 450 and 620 nanometers. […] is proportional to the concentration of insulin present. […]

healthy adult subjects [2] = test: Clinical study: breath hydrogen test for carbohydrate malabsorption; settings: 3 hours after 50 g oral; p=0.01
Protocol: Upon completion of baseline samples, the subject proceeded to the study site and consumed 16 fl oz of one of the two test beverages in no more than 10 minutes. After consumption of the study beverage, the subject resumed fasting. Time 0 was designated as the time at which the subject began drinking the study beverage. Additional venous blood samples and capillary plasma glucose finger sticks were collected at 15, 30, 45, 60, 90, 120, 150, and 180 […] minutes after the start of the study beverage. Additional breath samples were collected at 1, 2, 3, 4, 5, 6, 7, and 8 (±10 minutes) hours postprandially. Subjects were limited to the consumption of 8 fl oz of water during this three hour blood collection period. Approximately 10 mL of normal saline was injected into the vein after each blood draw in order to keep the line open and to replace the fluid lost from the blood collected.
After the 180-minute blood and breath samples were collected, the subject was allowed to leave the study site and collect the remaining breath samples (hours 4-8) on their own. During the remainder of the breath collection period, the subject was instructed to refrain from sleep and exercise. Subjects were to remain fasting with the exception of an optional one or two 8 fl oz cans of Ensure® Plus. […]
Breath hydrogen was analyzed to determine if the carbohydrate in the study product had been malabsorbed. […]

healthy adult subjects [3] = test: Clinical study: gastrointestinal tolerance, stool frequency and consistency
Protocol: For the pre-study tolerance test, subjects were instructed to not consume anything the day before that was known by them to cause gastrointestinal symptoms. They also completed an overnight 10-16 hour fast. The morning of the test visit, subjects reported to the study site and consumed 8 fl oz of one of the two study beverages within 10 minutes. The study beverage contained either 25 […] of maltodextrin or 25 grams of gamma-cyclodextrin. Subjects then resumed fasting. Subjects were allowed to leave the study site after the beverage had been consumed, however they were instructed to remain fasting for three hours from the time they began drinking the beverage. Subjects recorded gastrointestinal tolerance symptoms and stool frequency and consistency for 24 hours from the time they began drinking the study beverage. Upon subject completion of the gastrointestinal tolerance symptoms and stool frequency and consistency forms, the data were reviewed for signs of abnormal tolerance by a physician. The purpose of this symptom review was to determine if the product was generally well-tolerated. […] After the 180-minute blood and breath samples were collected, the subject was allowed to leave the study site and collect the remaining breath samples (hours 4-8) on their own. During the remainder of the breath collection period, the subject was instructed to refrain from sleep and exercise. Subjects were to remain fasting with the exception of an optional one or two 8 fl oz cans of Ensure® Plus. The flavor given to each subject was the same as that which was chosen for the pre-treatment meals, and the number of cans chosen remained constant for both treatments. Subjects were allowed to consume water as desired during this time. After completion of breath sample collection, subjects were free to resume their normal sleeping, eating, and exercise patterns. They continued to record gastrointestinal symptoms, stool frequency and consistency, and medication usage for the next 48 hours. […]

`OC[C@H]1O[C@@H]2O[C@H]3[C@H](O)[C@@H](O)[C@@H](O[C@H]4[C@H](O)[C@@H](O)[C@@H](O[C@H]5[C@H](O)[C@@H](O)[C@@H](O[C@H]6[C@H](O)[C@@H](O)[C@@H](O[C@H]7[C@H](O)[C@@H](O)[C@@H](O[C@H]8[C@H](O)[C@@H](O)[C@@H](O[C@H]9[C@H](O)[C@@H](O)[C@@H](O[C@H]1[C@H](O)[C@H]2O)O[C@@H]9CO)O[C@@H]8CO)O[C@@H]7CO)O[C@@H]6CO)O[C@@H]5CO)O[C@@H]4CO)O[C@@H]3CO` [Gamma-Cyclodextrin, Gamma-cyclodextrin] was tested, and the “Serum insulin area under the curve (AUC), effect versus maltodextrin” value (healthy adult subjects [1]; 50 g oral challenge) was “significantly reduced”, the “Positive incremental 120 min serum insulin AUC” value (healthy adult subjects [1]; 50 g oral, mean±SEM, n=27 maltodextrin, n=31 gamma-cyclodextrin) was 993.4±131.6 and the “Adjusted peak insulin value compared with maltodextrin” value (healthy adult subjects [1]; 50 g oral, p=0.0003) was “significantly decreased”. The “Relative insulinemic response compared to maltodextrin” value (healthy adult subjects [1]; baseline to 120 min, 50 g oral) was 51%, the “Breath hydrogen compared to maltodextrin” value (healthy adult subjects [2]) was “significantly higher” and the “Gastrointestinal tolerance versus maltodextrin, pre-study tolerance test” value (healthy adult subjects [3]; 25 grams oral, 24 hours, reviewing physician) was “no significant differences”. The “Stool frequency and consistency, difference between treatments” value (healthy adult subjects [3]; 50 g oral) was “no significant differences” and the “Intensity and frequency of nausea, difference between treatments” value (healthy adult subjects [3]; first 24 hours after 50 g oral, crossover analysis) was “not significantly different”.
